The conditions of data set [1]: ester bond, 18-membered ring, PyBOP/HOBt/DIEA.
For another data set, the system named is K-RasG12V (Capan-1). Put plainly: Potency assay: cellular pERK (AlphaLISA SureFire or In-Cell Western), Capan-1. The data set is classed as cell-based. As to conditions: Homo sapiens; Capan-1 cells; 4 hours; in at least one of the assays (AlphaLISA or In-Cell Western); read-out: pERK IC50 with respect to K-RasG12V (Capan-1). The source says:
The purpose of this assay is to measure the ability of test compounds to inhibit K-Ras in cells. Activated K-Ras induces increased phosphorylation of ERK at Threonine 202 and Tyrosine 204 (PERK). This procedure measures a decrease in cellular pERK in response to test compounds. The procedure described below in Capan-1 cells is applicable to K-RasG12V.
Note: This protocol may be executed substituting other cell lines to characterize inhibitors of other RAS variants, including, for example, NCI-H358 (K-Ras G12C), AsPC-1 (K-Ras G12D), Capan-1 (K-Ras G12V), or NCI-H1355 (K-Ras G13C).
Cells are grown and maintained using media and procedures recommended by the ATCC. On the day prior to compound addition, cells are plated in 384-well cell culture plates (40 μl/well) and grown overnight in a 37° C., 5% CO2 incubator. Test compounds are prepared in 10, 3-fold dilutions in DMSO, with a high concentration of 10 mM. On the day of assay, 40 nL of test compound is added to each well of cell culture plate using an Echo550 liquid handler (LabCyte®). Concentrations of test compound are tested in duplicate. After compound addition, cells are incubated 4 hours at 37° C., 5% CO2. Following incubation, culture medium is removed, and cells are washed once with phosphate buffered saline.
In some experiments, cellular pERK level is determined using the AlphaLISA SureFire Ultra p-ERK1/2 Assay Kit (PerkinElmer). Cells are lysed in 25 μL lysis buffer, with shaking at 600 RPM at room temperature. Lysate (10 μL) is transferred to a 384-well Opti-plate (PerkinElmer) and 5 μL acceptor mix is added. After a 2-hour incubation in the dark, 5 μL donor mix is added, plate is sealed, and incubated 2 hours at room temperature. Signal is read on an Envision plate reader (PerkinElmer) using standard AlphaLISA settings. Analysis of raw data is carried out in Excel (Microsoft) and Prism (GraphPad). Signal is plotted vs. the decadal logarithm of compound concentration, and IC50 is determined by fitting a 4-parameter sigmoidal concentration response model.
In other experiments, cellular pERK is determined by In-Cell Western. Following compound treatment, cells are washed twice with 200 μL tris buffered saline (TBS) and fixed for 15 minutes with 150 μL 4% paraformaldehyde in TBS. Fixed cells are washed 4 times for 5 minutes with TBS containing 0.1% Triton X-100 (TBST) and then blocked with 100 μL Odyssey blocking buffer (LI-COR) for 60 minutes at room temperature. Primary antibody (PERK, CST-4370, Cell Signaling Technology) is diluted 1:200 in blocking buffer, and 50 μL is added to each well and incubated overnight at 4° C. Cells are washed 4 times for 5 minutes with TBST. Secondary antibody (IR-800CW rabbit, LI-COR, diluted 1:800) and DNA stain DRAQ5 (LI-COR, diluted 1:2000) are added and incubated 1-2 hours at room temperature. Cells are washed 4 times for 5 minutes with TBST. Plates are scanned on a Li—COR Odyssey CLx Imager. Analysis of raw data is carried out in Excel (Microsoft) and Prism (GraphPad). Signal is plotted vs. the decadal logarithm of compound concentration, and IC50 is determined by fitting a 4-parameter sigmoidal concentration response model.
(In general: Alpha assays give light when donor and acceptor beads are brought close together.)

Where two headings read alike, the source gives them in different places.

Turning to `CO[C@@H](C)c1ncc(C2CN(C3CC3)C2)cc1-c1c2c3cc(ccc3n1CCOC1CCOCC1)-c1csc(n1)[C@@H](N1CC3(COC3)C1)[C@H](NC(=O)[C@@H]1OC[C@@H]1C)C(=O)N1CCC[C@H](N1)C(=O)OCC(C)(C)C2`, the ring closure, yield after HPLC in data set [1] (from CO[C@@H](C)c1ncc(C2CN(C3CC3)C2)cc1-c1c(CC(C)(C)CO)c2cc(-c3csc([C@H]([C@H](NC(=O)[C@@H]4OC[C@@H]4C)C(=O)N4CCC[C@@H](C(=O)O)N4)N4CC5(COC5)C4)n3)ccc2n1CCOC1CCOCC1, MeCN, 1.44 mM, 35.0 °C, 3.0 h) was 20%.

`COC1CN([C@@H]2c3nc(cs3)-c3ccc4c(c3)c(c(-c3cccnc3[C@H](C)OC)n4C3CN(C4CC4)C3)CC(C)(C)COC(=O)[C@@H]3CCCN(N3)C(=O)[C@H]2NC(=O)OC(C)(C)C)C1` yielded a ring closure, yield after HPLC in data set [1] (from COC1CN([C@H](c2nc(-c3ccc4c(c3)c(CC(C)(C)CO)c(-c3cccnc3[C@H](C)OC)n4C3CN(C4CC4)C3)cs2)[C@H](NC(=O)OC(C)(C)C)C(=O)N2CCC[C@@H](C(=O)O)N2)C1, DMF, 11.2 mM, 25.0 °C, 5.0 h) of 40.2%.

One may read the IC50 as the concentration that gives 50% inhibition. As for `CO[C@@H](C)c1ncc(N2CCN(C3CC3)CC2)cc1-c1c2c3cc(ccc3n1CCOC1CCOCC1)-c1csc(n1)[C@@H](N1CC3(COC3)C1)[C@H](NC(=O)[C@@H]1[C@@H](C)[C@H]1C(=O)N1CCN(C)CC1)C(=O)N1CCC[C@H](N1)C(=O)OCC(C)(C)C2` (atropisomer, axis not shown) [Example A1083], the IC50 with K-RasG12V (Capan-1) is less than 650 nM.

As to `CO[C@@H](C)c1ncccc1-c1c2c3cc(ccc3n1C1CN(C3CC3)C1)-c1coc(n1)[C@@H](N1CCN(C)CC1)[C@H](NC(=O)[C@@H]1[C@@H](C)[C@H]1c1ccncn1)C(=O)N1CCC[C@H](N1)C(=O)OCC(C)(C)C2` (atropisomer, axis not shown) [Example A1104], the half-inhibitory concentration (IC50) in the data set on K-RasG12V (Capan-1) is less than 650 nM.

In the case of `CO[C@@H](C)c1ncccc1-c1c2c3cc(ccc3n1C1CC(C#N)C1)-c1coc(n1)[C@@H](N1CC3(COC3)C1)[C@H](NC(=O)OC(C)(C)C)C(=O)N1CCC[C@H](N1)C(=O)OCC(C)(C)C2` (some centres unmarked), the ring closure, yield after HPLC in data set [1] (from CO[C@@H](C)c1ncccc1-c1c(CC(C)(C)CO)c2cc(-c3coc([C@H]([C@H](NC(=O)OC(C)(C)C)C(=O)N4CCC[C@@H](C(=O)O)N4)N4CC5(COC5)C4)n3)ccc2n1C1CC(C#N)C1, DMF, 12.5 mM, 25.0 °C, 2.0 h) is 27.4%.
